Results from patent US9169241B2, “Quinolinyloxyphenylsulfonamides” (Max-Planck-Gesellschaft Zur Forderung der Wissenschaften …, priority 2009, dated 2015).
Like-named read-outs stand apart in the source and are kept apart here.

Tests used:
SF126 [1] = assay: Matrigel outgrowth assay/branching assay; format: cell-based; conditions: Homo sapiens, SF-126, Table Vb, read-out: Total branching inhibition in Matrigel SF126
Method in brief: (§1)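 Read-out: microscopic images of invasive branching structures at 48 h, 72 h and 96 h. Cells sat on a 3 mg/ml Matrigel layer (set 1 h, 37° C) with compound at 3.125, 1.56 and 0.78 μM or DMSO. A concentration counts as positive only with complete branching inhibition.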

Hs578T [2] = assay: Matrigel outgrowth assay/branching assay; format: cell-based; conditions: Homo sapiens, Hs-578T; HS578T cell line; Table Ib; read-out: Total branching inhibition in Matrigel HS578T
Method in brief: as §1

U118 [3] = assay: Matrigel outgrowth assay/branching assay; format: cell-based; conditions: Table Vb, read-out: Total branching inhibition in Matrigel U118
Method in brief: as §1

A172 = assay: Matrigel outgrowth assay/branching assay; format: cell-based; conditions: Homo sapiens, A 172, Table Vb, read-out: Total branching inhibition in Matrigel A172
Method in brief: as §1

Hs578T [4] = assay: Wound healing migration assay; format: cell-based; conditions: Homo sapiens, Hs-578T; HS578T cell line; Table Ib
Method in brief: (§2)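 Cells seeded at 150000/24 well, grown to monolayer overnight, scratched with a pipette tip, then treated with compound at 12.5, 6.25 or 3.125 μM versus DMSO. Stopped by crystal violet fixation at 48-72 h once control wounds closed; IC50 taken as 50% wound size between t0 and t48 or t72.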

indicated cell line = assay: Wound healing migration assay (Table IV); format: cell-based; conditions: compounds at 12.5, 6.25, 3.125 μM, 48 h-72 h
Method in brief: as §2

SF126 [5] = assay: Cell vitality assay (ATP assay, CellTiter-Glo); format: cell-based; conditions: Homo sapiens, SF-126
Method in brief: (§3)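 1000 cells/well were exposed to compound at 12.5 μM down to 0.195 μM (twofold steps) or DMSO for 72 h. ATP was then measured by luminescence after 10 min reagent lysis at room temperature. IC50 was taken as the concentration giving 50% of the DMSO-control ATP level.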

Hs578T [6] = assay: Cell vitality assay (ATP assay, CellTiter-Glo); format: cell-based; conditions: Homo sapiens, Hs-578T; HS578T cell line, 72 h; Table Ib; read-out: IC50 ATP-Assay HS578T after 72 h
Method in brief: as §3

U118 [7] = assay: Cell vitality assay (ATP assay, CellTiter-Glo); format: cell-based
Method in brief: as §3

[8] = Homo sapiens, A 172, A172 cells, read-out: IC50 Wound healing Assay A172
[9] = Homo sapiens, SF-126, SF126 cells, read-out: IC50 Wound healing Assay SF126
[10] = U118 cells, read-out: IC50 Wound healing Assay U118
[11] = SF126, 72 h, Table IIa, read-out: IC50 ATP-Assay after 72 h SF126
[12] = U118, 72 h, Table IIa, read-out: IC50 ATP-Assay after 72 h U118

Row | Compound | IC50 (Hs578T [4]) [µM] | IC50 (indicated cell line; [8]) [µM] | IC50 (indicated cell line; [9]) [µM] | IC50 (indicated cell line; [10]) [µM] | melting point [°C] | IC100 (SF126 [1]) [µM] | IC50 (Hs578T [2]) [µM] | IC100 (U118 [3]) [µM] | IC100 (A172) [µM] | IC50 (SF126 [5]; [11]) [µM] | IC50 (Hs578T [6]) [µM] | IC50 (U118 [7]; [12]) [µM] | IC50 (SF126 [5]; cell vitality assay, SF126, Table IIb, read-out: IC50 SF126) [µM] | IC50 (U118 [7]; cell vitality assay, U118, Table IIc, read-out: IC50 U118) [µM]
1 | COc1cc2c(Oc3ccc(NS(=O)(=O)c4c(F)cccc4F)cc3F)ccnc2cc1OCCCN1CCCCC1 [Example 11, 2,6-Difluoro-N-{3-fluoro-4-[6-methoxy-7-(3-piperidin-1-yl-propoxy)-quinolin-4-yloxy]-phenyl}-benzenesulfonamide] | ≤ 12.5 | 12.5 to 50 | ≤ 12.5 | 12.5 to 50 | 242 to 244 | > 12.5 | 10 to 25 | > 12.5 | > 12.5 | 12.5 to 50 | ≤ 12.5 | 12.5 to 50 |  | 
2 | COc1cc2c(Oc3ccc(NS(=O)(=O)c4ccccc4[N+](=O)[O-])cc3F)ccnc2cc1OCCCN1CCCC(C)C1 (centres unmarked) [Example 40, N-(3-Fluoro-4-{6-methoxy-7-[3-(3-methyl-piperidin-1-yl)-propoxy]-quinolin-4-yloxy}-phenyl)-2-nitro-benzenesulfonamide] | ≤ 12.5 | ≤ 12.5 | ≤ 12.5 | ≤ 12.5 | 136 to 138 | ≤ 12.5 | ≤ 10 | > 12.5 | > 12.5 | ≤ 12.5 | ≤ 12.5 | 12.5 to 50 |  | 
3 | COc1cc2c(Oc3ccc(NS(=O)(=O)c4ccccc4OC(F)(F)F)cc3F)ccnc2cc1OCCCN1CCCC(C)C1 (centres unmarked) [Example 45, N-(3-Fluoro-4-{6-methoxy-7-[3-(3-methyl-piperidin-1-yl)-propoxy]-quinolin-4-yloxy}-phenyl)-2-trifluoromethoxy-benzenesulfonamide] | ≤ 12.5 | ≤ 12.5 | ≤ 12.5 | ≤ 12.5 | 128 to 130 | ≤ 12.5 | ≤ 10 | ≤ 12.5 | > 12.5 | ≤ 12.5 | ≤ 12.5 | ≤ 12.5 |  | 
4 | COc1cc2c(Oc3ccc(NS(=O)(=O)c4ccc(F)c(F)c4F)cc3F)ccnc2cc1OCCCN1CCCC(C)C1 (centres unmarked) [Example 49, 2,3,4-Trifluoro-N-(3-fluoro-4-{6-methoxy-7-[3-(3-methyl-piperidin-1-yl)-propoxy]-quinolin-4-yloxy}-phenyl)-benzenesulfonamide] | ≤ 12.5 | ≤ 12.5 | ≤ 12.5 | ≤ 12.5 | 134 to 136 | > 12.5 | 10 to 25 | > 12.5 | > 12.5 | ≤ 12.5 | ≤ 12.5 | ≤ 12.5 |  | 
5 | COc1cc2c(Oc3ccc(NS(=O)(=O)c4c(Cl)cccc4Cl)cc3F)ccnc2cc1OCCCN1CCCC(C)C1 (centres unmarked) [Example 51, 2,6-Dichloro-N-(3-fluoro-4-{6-methoxy-7-[3-(3-methyl-piperidin-1-yl)-propoxy]-quinolin-4-yloxy}-phenyl)-benzenesulfonamide] | ≤ 12.5 | ≤ 12.5 | ≤ 12.5 | ≤ 12.5 | 119 to 121 | ≤ 12.5 | ≤ 10 | ≤ 12.5 | > 12.5 | ≤ 12.5 | ≤ 12.5 | ≤ 12.5 |  | 

More lines, main results first:

Row | IC50 (Hs578T [4]) [µM] | IC50 (indicated cell line; [8]) [µM] | IC50 (indicated cell line; [9]) [µM] | IC50 (indicated cell line; [10]) [µM] | melting point [°C] | Compound | IC100 (SF126 [1]) [µM] | IC50 (Hs578T [2]) [µM] | IC100 (U118 [3]) [µM] | IC100 (A172) [µM] | IC50 (SF126 [5]; [11]) [µM] | IC50 (Hs578T [6]) [µM] | IC50 (U118 [7]; [12]) [µM] | IC50 (SF126 [5]; cell vitality assay, SF126, Table IIb, read-out: IC50 SF126) [µM] | IC50 (U118 [7]; cell vitality assay, U118, Table IIc, read-out: IC50 U118) [µM]
6 | ≤ 12.5 | ≤ 12.5 | ≤ 12.5 | ≤ 12.5 | 125 to 127 | COc1cc2c(Oc3ccc(NS(=O)(=O)c4cccc(Cl)c4F)cc3F)ccnc2cc1OCCCN1CCCC(C)C1 (centres unmarked) [Example 54, 3-Chloro-2-fluoro-N-(3-fluoro-4-{6-methoxy-7-[3-(3-methyl-piperidin-1-yl)-propoxy]-quinolin-4-yloxy}-phenyl)-benzenesulfonamide] | ≤ 12.5 | 10 to 25 | > 12.5 | > 12.5 | 12.5 to 50 | ≤ 12.5 | ≤ 12.5 |  | 
7 | ≤ 12.5 | ≤ 12.5 | ≤ 12.5 | ≤ 12.5 | 132 to 134 | COC(=O)c1sccc1S(=O)(=O)Nc1ccc(Oc2ccnc3cc(OCCCN4CCCC(C)C4)c(OC)cc23)c(F)c1 (centres unmarked) [Example 66, 3-(3-Fluoro-4-{6-methoxy-7-[3-(3-methyl-piperidin-1-yl)-propoxy]-quinolin-4-yloxy}-phenylsulfamoyl)-thiophene-2-carboxylic acid methyl ester] | ≤ 12.5 | 10 to 25 | ≤ 12.5 | > 12.5 | ≤ 12.5 | ≤ 12.5 | ≤ 12.5 | ≤ 12.5 | ≤ 12.5
8 | ≤ 12.5 | ≤ 12.5 | ≤ 12.5 | ≤ 12.5 | 156 to 158 | COc1cc2c(Oc3ccc(NS(=O)(=O)c4ccccc4OC(F)(F)F)cc3F)ccnc2cc1OCCCN1CCCCC1 [Example 78, N-{3-Fluoro-4-[6-methoxy-7-(3-piperidin-1-yl-propoxy)-quinolin-4-yloxy]-phenyl}-2-trifluoromethoxy-benzenesulfonamide] | ≤ 12.5 | ≤ 10 | > 12.5 | > 12.5 | ≤ 12.5 | ≤ 12.5 | ≤ 12.5 |  | 
9 | ≤ 12.5 | 12.5 to 50 | ≤ 12.5 | ≤ 12.5 | 210 to 211 | COc1cc2c(Oc3ccc(NS(=O)(=O)c4c(Cl)cccc4Cl)cc3F)ccnc2cc1OCCN1CCOCC1 [Example 104, 2,6-Dichloro-N-{3-fluoro-4-[6-methoxy-7-(2-morpholin-4-yl-ethoxy)-quinolin-4-yloxy]-phenyl}-benzenesulfonamide] | > 12.5 | 10 to 25 | > 12.5 | > 12.5 | 12.5 to 50 | ≤ 12.5 | 12.5 to 50 |  | 
10 | ≤ 12.5 | ≤ 12.5 | ≤ 12.5 | ≤ 12.5 | 118 to 121 | COc1cc2c(Oc3ccc(NS(=O)(=O)c4cc(F)ccc4F)cc3Cl)ccnc2cc1OCCCN1CCN(C)CC1 [Example 112, N-(3-Chloro-4-{6-methoxy-7-[3-(4-methyl-piperazin-1-yl)-propoxy]-quinolin-4-yloxy}-phenyl)-2,5-difluoro-benzenesulfonamide] | ≤ 12.5 | ≤ 10 | ≤ 12.5 | ≤ 12.5 | ≤ 12.5 | ≤ 12.5 | ≤ 12.5 |  | 
